From patent US7928239B2, “Inhibition of RAF kinase using quinolyl, isoquinolyl or pyridyl ureas” (Bayer Healthcare LLC, priority 1999, dated 2011)

Row | melting point [°C] | SMILES
1 | 125 to 130 | CNC(=O)c1cc(Oc2ccc(NC(=O)Nc3ccc(Oc4ccnc(C(=O)NC)c4)cc3)cc2)ccn1 [Entry 103, bis(4-(2-(N-methylcarbamoyl)-4-pyridyloxy)phenyl) urea]
2 | 238 to 245 | CNC(=O)c1ccc(Oc2ccc(NC(=O)Nc3ccc(Cl)c(C(F)(F)F)c3)cc2)cn1 [Entry 56, N-(4-chloro-3-(trifluoromethyl)phenyl)-N′-(4-(2-(N-methylcarbamoyl)-5-pyridyloxy)phenyl) urea]
